Laboratory results taken from US9399625B2, “Acridone compounds” (Oregon Health & Science University, priority 2006, dated 2016).
Entries after “also recorded” stand apart in the source; their conditions may differ. Where two headings read alike, the source gives them in different places.

How the values were obtained:
[1] = test system: MDR P. falciparum strain W2; test: In vitro chemosensitization to chloroquine (RMI), strain W2; type: cell-based; details: Plasmodium falciparum, W2, read-out: IC50 of CQ in combination with 5 μM of selected drug, W2
[2] = test system: MDR P. falciparum strain Dd2; test: In vitro chemosensitization to chloroquine (RMI), strain Dd2; type: cell-based; details: Plasmodium falciparum, DD2, read-out: IC50 of CQ in combination with 5 μM of selected drug, Dd2
[3] = test system: CQ-sensitive D6 strain of P. falciparum; test: In vitro antimalarial activity, SYBR Green MSF assay, D6; type: cell-based; details: Plasmodium falciparum
Description: (§1) This example describes the screening of disclosed antimalarial acridones against the CQ-sensitive D6 strain and the MDR Dd2 strain of P. falciparum for in vitro antimalarial activity.

[4] = test system: MDR Dd2 strain of P. falciparum; test: In vitro antimalarial activity, SYBR Green MSF assay, Dd2; type: cell-based; details: Plasmodium falciparum
Description: as §1
As shown in Table 3 and Table 4, selected soluble acridone derivatives were screened for antimalarial activity against the CQ-sensitive D6 and the MDR Dd2 strains of P. falciparum.

[5] = Heme-binding affinity (spectrophotometric titration); details: Table 3
Description: With continued reference to FIG. 1, panel B illustrates the spectrophotometric titration curve of the heme:3,6-bis-ε-(N,N-diethylamino)-amyloxy xanthone (C5) complex. The apparent binding constant was derived from the best fit (solid line) of a 1:1 (heme dimer:C5) association model. […] Panels A and B show the fluorescence localization of C5 and LysoTracker Red, respectively.

[6] = In vitro heme aggregation assay; details: 25 mM phosphate buffer, pH 4.8, 30 minutes at room temperature
Procedure: This example describes the in vitro inhibition of heme aggregation by xanthone 2,3,4,5,6-pentahydroxyxanthone. Conditions: 25 mM Phosphate buffer, pH 5.2, 1 hour incubation at 37° C. Further details of this assay are described by Ignatushchenko et al. in Xanthones as antimalarial agents; studies of a possible mode of action.
This example describes visual evidence that acridones disclosed herein form soluble complexes with heme under mildly acidic conditions. […] Employing the same assay conditions, heme was mixed with T2 or T3.5 under mildly acidic conditions (25 mM phosphate buffer, pH 4.8) and monitored. […] Without being limited to theory, it is believed that for some compounds inhibition of heme aggregation in vitro can be correlated with inhibition of hemozoin formation in vivo.

[7] = test system: CQS (D6) strain of P. falciparum; test: In vitro chemosensitizing effects of acridones (RMI), D6; type: cell-based; details: Plasmodium falciparum, D6, read-out: IC50 of CQ, D6
Description: (§2) Antimalarial drug combinations can be assessed in a number of ways. For example, the response modification index (RMI) can be calculated by the following formula: RMI=IC50 of drug A in the presence of drug B/IC50 of drug A alone, where drug A is an existing antimalarial and B is a single sub-inhibitory concentration of the acridone candidate. An RMI less than 1.0 represents chemosensitization and possible synergy. A second method of evaluating combination therapies is Fractional Inhibitory Concentration, (e.g., FIC50=[IC50 of Drug A in the presence of a fixed amount of Drug B]/[IC50 of Drug A alone]). RMI and FIC are helpful measures for side-by-side comparison of multiple chemosensitizer drugs at fixed concentrations, but neither distinguishes between additive and synergistic effects, or describes effects over a wide concentration range. Standard FIC indices (FIC of Drug A+FIC of Drug B) distinguish synergistic, additive and antagonistic interactions, but are dependent on the correct estimation of the expected effect of the fixed test drug.

[8] = test system: MDR (Dd2) strain of P. falciparum; test: In vitro chemosensitizing effects of acridones (RMI), Dd2; type: cell-based; details: Plasmodium falciparum, DD2, read-out: IC50 of CQ, Dd2
Description: as §2

[9] = test system: late trophozoites in PRBCs; test: Morphological changes in acridone treated parasites (blood smears, light microscopy); details: compared to drug-free controls
Description: This example provides morphological changes in acridone treated parasites. […] These preliminary evaluations of blood smears by light microscopy indicate that acridones cause alterations in parasite morphology and viability.

[10] = test system: murine splenic lymphocytes (MSLCs); test: Cytotoxicity by Alamar Blue assay; details: for IVTI: ratio of cytotoxicity IC50 (vs. MSLCs) to antimalarial IC50 against D6; for IC50: cytotoxicity
[11] = test system: CQ-sensitive P. yoelii (strain K); test: 4-day suppressive test in female CF-1 mice; type: in vivo
Procedure: This example describes evaluation of the in vivo antimalarial efficacy of the disclosed acridones against CQ-sensitive P. yoelii (strain K) in female CF-1 mice. Illustrated in FIG. 2, are the results of a 4-day suppressive test with acridone T2 (3-(2-diethylaminoethoxy)-6-chloro-9-acridone)) in PBS administered intragastrically (ig) by gavage one hour after infection and then once daily, 24, 48 and 72 hours later.
This example describes evaluation of acridones in rodent models of blood-stage malaria.

P. yoelii = test: Single-dose ig efficacy after patent infection in mice; type: in vivo; details: single ig dose 100 mg/kg; HCl salt
Procedure: The single-dose efficacy of acridone compounds also was assessed in vivo using ig treatment after patent infection. Test compounds were administered as a single dose at 100 mg/kg (30 mg/kg for CQ) 24 hours after P. yoelii infection, and blood smears were collected 48 and 72 hours post-treatment.

MDR P. falciparum Dd2 = test: Fixed-ratio combination (isobologram) with quinoline antimalarials, Dd2; type: cell-based; details: isobolar analysis
Procedure: In one embodiment, synergism is assessed herein using fixed-ratio combinations that provide information over a wide range of drug concentrations. […] If these stock solutions were termed Drug A and Drug B, then six final stock solutions were prepared from this initial stock: Drug A alone, Drug B alone, and volume:volume mixtures of Drug A and B in the following ratios: 4:1, 3:2, 2:3, and 1:4. Two-fold dilutions of each of the six final stock solutions were done robotically across a 96-well plate in quadruplicate. Subsequent steps were typical of standard drug-susceptibility methods. […] The data pointed from all six curves were then analyzed using Calcusyn software (commercially available from BioSoft, Cambridge, UK) for determination of synergy. Output from this analysis included FIC values used to plot isobolograms as well as a rigorously determined synergy index, termed the combination index (CI) (Calcusyn). FIC50 isobolograms, CI's and tabulation of IC90 component drug concentrations were reported.
The combinations of the acridones T3.5 and T2 with quinine were assessed for synergism.
FIG. 6 is an isobologram charting the efficacy of quinine in combination with T3.5 in vitro against CQ-sensitive (D6) and MDR (Dd2) P. falciparum.

P. yoelii sporozoites = test: Prophylactic efficacy, murine sporozoite-induced malaria model; type: in vivo; details: 160 mg/kg ig on days −1, 0 and 1
Procedure: This example evaluates the prophylactic efficacy of the acridone T2. T2 was evaluated in a murine P. yoelii sporozoite-induced malaria model to determine prophylactic efficacy.
Mice were treated with 160 mg/kg ig, on days −1, 0, and 1 with injection of 250,000 sporozoites on day 0.

[12] = biological target: T1, recombinant human dopamine transporter (hDAT) (Homo sapiens, UniProt Q01959); test: [125I]RTI-55 binding, HEK-hDAT
T1 construct: expressed in transfected cells
T1 sequence (Q01959 whole entry): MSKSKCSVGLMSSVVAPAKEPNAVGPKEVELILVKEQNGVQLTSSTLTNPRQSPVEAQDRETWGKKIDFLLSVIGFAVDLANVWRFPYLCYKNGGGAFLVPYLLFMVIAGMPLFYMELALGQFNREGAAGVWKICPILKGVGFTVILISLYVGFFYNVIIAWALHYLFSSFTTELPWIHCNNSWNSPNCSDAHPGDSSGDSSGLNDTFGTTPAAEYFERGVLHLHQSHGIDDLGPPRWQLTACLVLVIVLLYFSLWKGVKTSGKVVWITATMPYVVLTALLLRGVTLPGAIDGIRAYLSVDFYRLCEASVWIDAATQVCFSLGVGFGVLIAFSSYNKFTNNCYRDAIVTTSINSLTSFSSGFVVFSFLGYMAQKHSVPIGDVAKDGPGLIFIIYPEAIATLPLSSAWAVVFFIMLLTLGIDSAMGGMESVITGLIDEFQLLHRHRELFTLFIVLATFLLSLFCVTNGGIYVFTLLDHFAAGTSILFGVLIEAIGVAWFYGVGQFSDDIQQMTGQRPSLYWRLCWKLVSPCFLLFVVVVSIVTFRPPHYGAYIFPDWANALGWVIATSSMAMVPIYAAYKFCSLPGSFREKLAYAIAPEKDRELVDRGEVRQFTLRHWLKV

[13] = biological target: T2, recombinant human serotonin transporter (hSERT) (Homo sapiens, UniProt P31645); test: [125I]RTI-55 binding, HEK-hSERT
T2 construct: expressed in transfected cells
T2 sequence (P31645 whole entry): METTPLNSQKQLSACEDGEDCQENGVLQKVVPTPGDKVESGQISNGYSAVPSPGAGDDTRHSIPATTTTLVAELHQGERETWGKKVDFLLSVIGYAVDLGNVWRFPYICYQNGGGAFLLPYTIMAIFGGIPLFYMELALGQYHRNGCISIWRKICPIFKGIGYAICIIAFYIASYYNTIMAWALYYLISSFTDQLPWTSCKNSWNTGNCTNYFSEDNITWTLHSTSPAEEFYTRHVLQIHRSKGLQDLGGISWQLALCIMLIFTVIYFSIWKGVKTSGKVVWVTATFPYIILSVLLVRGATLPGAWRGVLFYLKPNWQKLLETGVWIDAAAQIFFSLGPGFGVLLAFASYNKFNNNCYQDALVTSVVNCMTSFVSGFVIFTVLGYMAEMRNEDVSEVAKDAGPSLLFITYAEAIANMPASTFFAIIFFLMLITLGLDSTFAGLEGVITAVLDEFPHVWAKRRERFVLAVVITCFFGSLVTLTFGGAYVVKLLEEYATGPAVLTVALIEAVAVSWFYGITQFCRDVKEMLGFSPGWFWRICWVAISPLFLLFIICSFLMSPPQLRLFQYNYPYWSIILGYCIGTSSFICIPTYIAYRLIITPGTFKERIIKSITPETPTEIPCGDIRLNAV

[14] = biological target: T3, recombinant human norepinephrine transporter (hNET) (Homo sapiens, UniProt P23975); test: [125I]RTI-55 binding, HEK-hNET
T3 construct: expressed in transfected cells
T3 sequence (P23975 whole entry): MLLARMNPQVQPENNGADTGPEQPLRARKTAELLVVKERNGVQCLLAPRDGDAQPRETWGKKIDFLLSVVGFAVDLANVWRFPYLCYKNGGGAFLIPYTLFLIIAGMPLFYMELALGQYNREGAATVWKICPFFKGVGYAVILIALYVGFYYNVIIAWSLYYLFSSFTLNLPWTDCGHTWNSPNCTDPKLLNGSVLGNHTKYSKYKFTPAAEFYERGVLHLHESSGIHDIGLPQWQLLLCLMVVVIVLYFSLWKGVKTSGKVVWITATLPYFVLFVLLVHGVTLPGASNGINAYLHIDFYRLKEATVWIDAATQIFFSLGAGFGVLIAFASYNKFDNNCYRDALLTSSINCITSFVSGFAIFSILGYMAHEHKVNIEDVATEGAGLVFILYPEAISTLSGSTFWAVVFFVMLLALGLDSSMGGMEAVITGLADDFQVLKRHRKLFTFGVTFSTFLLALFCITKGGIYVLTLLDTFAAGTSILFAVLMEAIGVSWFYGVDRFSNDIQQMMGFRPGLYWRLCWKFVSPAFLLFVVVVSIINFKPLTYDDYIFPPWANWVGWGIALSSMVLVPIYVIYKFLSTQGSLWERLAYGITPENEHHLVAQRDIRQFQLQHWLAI

[15] = General toxicity in treated mice; details: 256 mg/kg/day×3 days
P. berghei (ANKA) = test: Efficacy vs patent P. berghei infection in mice
P. yoelii (K) = test: Curative efficacy vs patent infection, three once-daily doses (adapted 6-day Thompson test)
[16] = D6, Table 2, average of 4 independent experiments, read-out: IC50, D6
[17] = D6, Table 3, MSF assay, read-out: IC50 P. falciparum D6
[18] = DD2, Table 2, average of 4 independent experiments, read-out: IC50, Dd2
[19] = DD2, Table 3, MSF assay, read-out: IC50 P. falciparum Dd2

For `CCN(CC)CCCC(C)Nc1ccnc2cc(Cl)ccc12` (centres unmarked) [Chloroquine, reference compound], the IC50 [1] was 290 nM, the IC50 [2] was 100 nM and the IC50 ([3]; D6, read-out: IC50, D6) was 6.8 nM. It also gave an IC50 ([3]; D6, read-out: IC50 P. falciparum D6) of 8.4 nM, an IC50 ([3]; D6, read-out: IC50 of CQ, CQ-sensitive strain D6) of 15 nM and an IC50 ([4]; DD2, read-out: IC50, Dd2) of 132 nM. For the same molecule, the IC50 ([4]; DD2, read-out: IC50 P. falciparum Dd2) was 124 nM, the “Heme-binding Ka” value [5] was 5.5 10^4 M^−1 and the “formation of heme aggregates” value [6] was “fails to prevent heme aggregation”. The IC50 [7] was 8.4 nM and the IC50 [8] was 124 nM.
`CCN(CC)CCOc1ccc2c(=O)c3ccccc3[nH]c2c1` [T1, 3-(2-diethylaminoethoxy)-9-acridone] showed an IC50 [3, 16] of 167 nM, an IC50 [3, 17] of 167 nM and an IC50 [4, 18] of 159 nM. For the same molecule, the IC50 [4, 19] was 159 nM, the “appearance of treated late trophozoites” value [9] was “pale staining with loss of intracellular definition and fragmented hemozoin” and the IVTI [10] was greater than 150. It also gave an IC50 ([10]; read-out: IC50, MSLCs, Table 2) greater than 25000 nM and an IC50 ([10]; read-out: IC50 MSLCs, Table 3) greater than 25000 nM.
In the case of `CCN(CC)CCOc1ccc2c(=O)c3ccc(Cl)cc3[nH]c2c1` [T2, 3-(2-diethylaminoethoxy)-6-chloro-9-acridone], the IC50 [3, 16] is reported as 18 nM, the IC50 [3, 17] is reported as 26 nM and the IC50 [4, 18] is reported as 17 nM. For the same molecule, the IC50 [4, 19] was 33 nM, the “Heme-binding Ka” value [5] was 4.3 10^4 M^−1 and the “mice parasite-free to the end of the observation period” value ([11]; 200 mg/kg/day) was “all of the four mice in that group remained parasite-free”. The suppression of parasitemia ([11]; 200 mg/kg/day, assessed 24 hours after the last dose) was “completely suppressed parasitemia; also recorded: complete suppression”, the ED50 ([11]; Plasmodium yoelii, po, 96 h, ig by gavage, once daily, 4 days) was 27.1 mg/kg and the ED90 ([11]; ig by gavage, once daily, 4 days) was 42 mg/kg. For the same molecule, the “reduction of parasitemia at 72 hours” value (P. yoelii) was “greater than 90%”, the interaction with quinine (MDR P. falciparum Dd2) was “not and no evidence of synergy” and the “formation of heme aggregates” value [6] was “prevent the formation of heme aggregates”. The toxicity (P. yoelii sporozoites) was “No toxicity was observed”, the “treated animals parasite-free on days 6, 11 and 14” value (P. yoelii sporozoites) was “all 5 treated animals to be parasite-free” and the Ki [12] was greater than 10000 nM. The Ki [13] was greater than 10000 nM, the Ki [14] was 5850 nM and the weight loss [15] was 10%. The “cytotoxicity at the highest tested concentration” value ([10]; 25 μM) was “no evidence of cytotoxicity”, the IVTI [10] was greater than 1389 and the IC50 ([10]; read-out: IC50, MSLCs, Table 2) was greater than 25000 nM. It also gave an IC50 ([10]; read-out: IC50 MSLCs, Table 3) greater than 25000 nM, an ED90 (P. berghei (ANKA); P. berghei (ANKA)) of 80 mg/kg/day and an ED50 (P. berghei (ANKA); patent P. berghei (ANKA) infection, by gavage) of 55 mg/kg/day. For the same molecule, the “long-term outcome (parasitemia at 30 days, cure)” value (P. yoelii (K); 256 mg/kg/day) was “long-term cure”, the “ED50 and ED90, gavage (ig) dosing, in words” value (P. yoelii (K); ig, three once-daily doses) was “comparable” and the “ED50 (ip)” value (P. yoelii (K); ip once daily for three days) was 38 mg/kg/day. For the same molecule, the “ED90 (ip)” value (P. yoelii (K); ip once daily for three days) was 66 mg/kg/day.
